ChEMBL document CHEMBL3352252, “Design, synthesis and molecular modeling of biquinoline-pyridine hybrids as a new class of potential EGFR and HER-2 kinase inhibitors” (Bioorg Med Chem Lett, 2014)

What was measured:
[1] = biological target: Receptor tyrosine-protein kinase erbB-2 (Homo sapiens, UniProt P04626); assay: Inhibition of histidine-tagged recombinant HER2 (unknown origin) expressed in Sf9 cells assessed as reduction in enzyme autophosphorylation by DELFIA/time-resolved fluorometry
[2] = system: HepG2; assay: Antiproliferative activity against human HepG2 cells after 48 hrs by MTT assay; type: functional, cell-based; settings: HepG2, 48 h
[3] = biological target: Epidermal growth factor receptor (Homo sapiens, UniProt P00533); assay: Inhibition of histidine-tagged recombinant EGFR cytoplasmic domain (amino acids 645-1186) (unknown origin) expressed in Sf9 cells assessed as reduction in enzyme autophosphorylation by DELFIA/time-resolved fluorometry
[4] = system: A549; assay: Antiproliferative activity against human A549 cells after 48 hrs by MTT assay; type: functional, cell-based; settings: A549, 48 h

Receptor tyrosine-protein kinase erbB-2, sequence (P04626 whole entry): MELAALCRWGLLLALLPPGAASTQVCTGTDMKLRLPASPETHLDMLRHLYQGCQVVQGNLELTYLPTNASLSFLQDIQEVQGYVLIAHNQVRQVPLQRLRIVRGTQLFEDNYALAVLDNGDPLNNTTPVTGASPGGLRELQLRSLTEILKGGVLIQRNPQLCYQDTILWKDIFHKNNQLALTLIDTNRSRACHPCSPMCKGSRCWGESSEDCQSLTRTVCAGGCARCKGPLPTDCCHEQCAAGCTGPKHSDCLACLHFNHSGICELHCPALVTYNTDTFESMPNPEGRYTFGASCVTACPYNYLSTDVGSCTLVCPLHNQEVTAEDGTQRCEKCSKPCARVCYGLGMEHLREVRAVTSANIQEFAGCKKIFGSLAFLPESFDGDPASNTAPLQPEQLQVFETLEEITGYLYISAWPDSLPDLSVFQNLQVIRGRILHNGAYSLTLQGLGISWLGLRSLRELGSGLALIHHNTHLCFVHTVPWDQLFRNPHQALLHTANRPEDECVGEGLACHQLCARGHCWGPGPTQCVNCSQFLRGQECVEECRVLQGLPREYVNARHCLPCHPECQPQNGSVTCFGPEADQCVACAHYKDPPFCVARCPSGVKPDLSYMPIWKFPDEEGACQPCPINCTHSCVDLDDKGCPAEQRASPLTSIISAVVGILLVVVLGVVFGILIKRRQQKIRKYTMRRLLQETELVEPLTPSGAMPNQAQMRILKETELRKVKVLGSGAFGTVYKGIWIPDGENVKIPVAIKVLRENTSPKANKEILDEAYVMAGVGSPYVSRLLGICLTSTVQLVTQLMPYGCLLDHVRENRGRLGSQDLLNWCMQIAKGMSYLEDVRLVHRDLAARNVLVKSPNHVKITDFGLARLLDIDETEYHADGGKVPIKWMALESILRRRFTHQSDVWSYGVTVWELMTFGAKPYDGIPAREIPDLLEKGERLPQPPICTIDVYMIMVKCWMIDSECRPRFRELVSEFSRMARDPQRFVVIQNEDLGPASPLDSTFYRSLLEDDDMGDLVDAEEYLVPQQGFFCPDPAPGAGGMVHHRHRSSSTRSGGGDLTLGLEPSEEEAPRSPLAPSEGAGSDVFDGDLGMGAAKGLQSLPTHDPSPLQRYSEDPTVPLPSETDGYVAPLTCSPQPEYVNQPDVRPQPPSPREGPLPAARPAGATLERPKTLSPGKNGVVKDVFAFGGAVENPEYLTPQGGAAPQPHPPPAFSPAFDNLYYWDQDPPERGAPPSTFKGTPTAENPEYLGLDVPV
Epidermal growth factor receptor, sequence (P00533 whole entry, the tested form may be a part): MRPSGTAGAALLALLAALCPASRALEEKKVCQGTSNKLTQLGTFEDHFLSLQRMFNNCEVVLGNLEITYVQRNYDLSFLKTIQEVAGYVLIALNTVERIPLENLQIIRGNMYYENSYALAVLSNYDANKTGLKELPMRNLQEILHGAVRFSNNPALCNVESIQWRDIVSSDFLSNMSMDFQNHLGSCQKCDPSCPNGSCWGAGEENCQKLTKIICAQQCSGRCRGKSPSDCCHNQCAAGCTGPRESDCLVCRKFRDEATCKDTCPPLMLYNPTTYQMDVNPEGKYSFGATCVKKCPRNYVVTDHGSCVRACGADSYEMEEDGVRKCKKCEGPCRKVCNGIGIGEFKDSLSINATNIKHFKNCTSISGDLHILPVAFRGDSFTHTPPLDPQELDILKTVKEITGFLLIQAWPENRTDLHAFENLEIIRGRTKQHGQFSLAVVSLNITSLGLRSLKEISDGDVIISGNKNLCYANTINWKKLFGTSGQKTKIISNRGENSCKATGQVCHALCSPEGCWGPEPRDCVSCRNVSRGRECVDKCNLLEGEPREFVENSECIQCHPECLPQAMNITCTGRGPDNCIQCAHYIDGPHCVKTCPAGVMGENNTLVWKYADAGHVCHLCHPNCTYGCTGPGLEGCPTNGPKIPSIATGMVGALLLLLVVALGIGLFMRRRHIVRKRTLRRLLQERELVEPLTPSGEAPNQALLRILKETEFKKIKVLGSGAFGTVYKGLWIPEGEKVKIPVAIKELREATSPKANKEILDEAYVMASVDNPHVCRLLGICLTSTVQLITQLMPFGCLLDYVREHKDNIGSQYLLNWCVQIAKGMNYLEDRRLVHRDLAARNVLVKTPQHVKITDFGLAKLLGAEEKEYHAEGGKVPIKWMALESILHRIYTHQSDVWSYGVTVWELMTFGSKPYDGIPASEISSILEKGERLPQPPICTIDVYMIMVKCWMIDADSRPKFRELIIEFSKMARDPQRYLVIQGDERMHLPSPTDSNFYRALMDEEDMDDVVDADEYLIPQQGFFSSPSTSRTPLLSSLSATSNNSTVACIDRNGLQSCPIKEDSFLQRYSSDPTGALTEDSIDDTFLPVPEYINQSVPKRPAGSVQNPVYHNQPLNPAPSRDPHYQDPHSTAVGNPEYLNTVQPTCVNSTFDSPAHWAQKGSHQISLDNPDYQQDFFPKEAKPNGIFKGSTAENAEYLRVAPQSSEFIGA

Row | Structure (SMILES) | IC50 [1] [µM] | IC50 [2] [µM] | IC50 [3] [µM] | IC50 [4] [µM]
1 | Cc1ccc2c(c1)cc(C1C(C#N)=C(N)N(c3cccnc3)C3=C1C(=O)CCC3)c1nnnn12 (stereo not drawn) | 14.8 | 16.1 | 10.4 | 18.1
2 | COc1ccc2c(c1)cc(C1C(C#N)=C(N)N(c3cccnc3)C3=C1C(=O)CCC3)c1nnnn12 (stereo not drawn) | 8.9 | 21.2 | 5.4 | 23.1
3 | N#CC1=C(N)N(c2cccnc2)C2=C(C(=O)CCC2)C1c1cc2cc(Cl)ccc2n2nnnc12 (stereo not drawn) |  | 5.9 |  | 7.8
4 | COC(=O)C1=C(N)N(c2cccnc2)C2=C(C(=O)CCC2)C1c1cc2ccccc2n2nnnc12 (stereo not drawn) | 1.9 | 1.5 | 1.1 | 1.1
5 | COC(=O)C1=C(N)N(c2cccnc2)C2=C(C(=O)CCC2)C1c1cc2cc(C)ccc2n2nnnc12 (stereo not drawn) | 5.2 | 1.9 | 4.3 | 5.4
6 | COC(=O)C1=C(N)N(c2cccnc2)C2=C(C(=O)CCC2)C1c1cc2cc(OC)ccc2n2nnnc12 (stereo not drawn) | 2.1 | 6 | 1.3 | 6.4
7 | COC(=O)C1=C(N)N(c2cccnc2)C2=C(C(=O)CCC2)C1c1cc2cc(Cl)ccc2n2nnnc12 (stereo not drawn) | 9 | 1.3 | 8.1 | 0.1
8 | CCOC(=O)C1=C(N)N(c2cccnc2)C2=C(C(=O)CCC2)C1c1cc2ccccc2n2nnnc12 (stereo not drawn) | 0.2 | 0.1 | 0.09 | 0.4
9 | CCOC(=O)C1=C(N)N(c2cccnc2)C2=C(C(=O)CCC2)C1c1cc2cc(C)ccc2n2nnnc12 (stereo not drawn) | 4.1 | 7.1 | 7 | 8.5
10 | CCOC(=O)C1=C(N)N(c2cccnc2)C2=C(C(=O)CCC2)C1c1cc2cc(OC)ccc2n2nnnc12 (stereo not drawn) | 0.8 | 18.3 | 0.2 | 15.4
11 | CCOC(=O)C1=C(N)N(c2cccnc2)C2=C(C(=O)CCC2)C1c1cc2cc(Cl)ccc2n2nnnc12 (stereo not drawn) | 22.7 | 5.5 | 16.7 | 1.3
12 | N#CC1=C(N)N(c2cccnc2)C2=C(C(=O)CCC2)C1c1cc2ccccc2n2nnnc12 (stereo not drawn) | 5.2 | 11 | 4.8 | 13
13 | C#Cc1cccc(Nc2ncnc3cc(OCCOC)c(OCCOC)cc23)c1 [ERLOTINIB] |  | 0.1 |  | 0.1
